Experimental data taken from patent US7763600B2, “Hormone-based nitrogen monoxide donor compounds and use thereof in obstetrics and gynecology” (EFFIK, priority 2002, dated 2010).

Tested on: human myometreal fragments
Experiment: Inhibition in vitro of the uterine contractility of myometreal fibers from uteruses of women who are not pregnant
Format: cell-based
Conditions: for Inhibition as % (Mean): spontaneous contractions
Excerpt: Inhibition In Vitro of the Uterine Contractility of Myometreal Fibers from Uteruses of Women Who are Not Pregnant
The contractile activity of human myometreal fragments was studied in vitro.
After a lag time of approximately two hours, allowing the establishment of spontaneous contractions, the inhibition of the contractions, produced by addition to the medium of 17α-hydroxyprogesterone and of its nitro derivative, 17α-hydroxypregn-4-ene-3,20-dione (4′-nitro-oxymethyl)benzoate, identified in this table under the name 17α-hydroxypregn-4-ene-3,20-dione (4′-nitro-oxymethyl)benzoate (example 4), could be measured.
This experiment makes it possible to evaluate the short-term effect of this compound.

SMILES: CC(=O)[C@@]1(OC(=O)c2ccc(CO[N+](=O)[O-])cc2)CC[C@H]2[C@@H]3CCC4=CC(=O)CC[C@]4(C)[C@H]3CC[C@@]21C [17α-hydroxypregn-4-ene-3,20-dione (4′-nitrooxymethyl)benzoate]
- Activity on contractions compared with hydroxyprogesterone (on average, action much more constant, less variable): the same activity as hydroxyprogesterone
- Inhibition as % (Mean) (concentration 2 × 10^−6 M): 69%
- Inhibition as % (Mean) (concentration 2 × 10^−7 M): 37%

SMILES: CC(=O)[C@@]1(O)CC[C@H]2[C@@H]3CCC4=CC(=O)CC[C@]4(C)[C@H]3CC[C@@]21C [17α-hydroxyprogesterone, reference compound]
- Inhibition as % (Mean) (concentration 2 × 10^−6 M): 66%
- Inhibition as % (Mean) (concentration 2 × 10^−7 M): 45%
